PubChem BioAssay AID1259411 (Chemical Carcinogenesis Research Information System (CCRIS), 2018)
Activity calls are given as the source filed them. No rule for the calls is given here.

Test system: rodent carcinogenicity bioassays, tumor incidence
Assay: CCRIS carcinogenicity studies
How it was run: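 Archive of carcinogenicity, mutagenicity, tumor promotion and tumor inhibition results drawn from journals, NCI reports and other sources, expert-reviewed; covers 1985-2011 and is no longer updated.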

C=CC=O was tested, and the carcinogen call (Species: MOUSE, Strain/Sex: B6C3F1/FEMALE, Route: INTRAPERITONEAL, Dose: 0, 75 NMOL TOTAL DOSE, 1/3 AND 2/3 OF THE TOTAL DOSE ADMINISTERED AT 8 AND 15 DAYS OF AGE RESPECTIVELY, ANIMALS TERMINAT) was “inactive; negative”, the carcinogen call (Species: MOUSE, Strain/Sex: B6C3F1/FEMALE, Route: INTRAPERITONEAL, Dose: 0, 150 NMOL TOTAL DOSE, 1/3 AND 2/3 OF THE TOTAL DOSE ADMINISTERED AT 8 AND 15 DAYS OF AGE RESPECTIVELY, ANIMALS TERMINA) was “inactive; negative” and the carcinogen call (Species: MOUSE, Strain/Sex: B6C3F1/MALE, Route: INTRAPERITONEAL, Dose: 0, 75 NMOL TOTAL DOSE, 1/3 AND 2/3 OF THE TOTAL DOSE ADMINISTERED AT 8 AND 15 DAYS OF AGE RESPECTIVELY, ANIMALS TERMINAT) was “inactive; negative”. The carcinogen call (Species: MOUSE, Strain/Sex: B6C3F1/MALE, Route: INTRAPERITONEAL, Dose: 0, 150 NMOL TOTAL DOSE, 1/3 AND 2/3 OF THE TOTAL DOSE ADMINISTERED AT 8 AND 15 DAYS OF AGE RESPECTIVELY, ANIMALS TERMINA) was “inactive; negative”, the carcinogen call (Species: MOUSE, Strain/Sex: CD-1/FEMALE, Route: GAVAGE, Dose: 0, 0.5, 2, 4.5 MG/KG (STABILIZED WITH 0.25%-0.3% HYDROQUINONE) 1/D FOR 18 MO (STUDY DURATION: 18 MO), Dose: 0, 0.5, 2, 4.5 MG/KG (STABILIZED WITH 0.25%-0.3% HYDROQUINONE) 1/D FOR 18 MO (STUDY DURATION: 18 MO)) was “inactive; negative” and the carcinogen call (Species: MOUSE, Strain/Sex: CD-1/MALE, Route: GAVAGE, Dose: 0, 0.5, 2, 4.5 MG/KG (STABILIZED WITH 0.25%-0.31 HYDROQUINONE) 1/D FOR 18 MO (STUDY DURATION: 18 MO), Dose: 0, 0.5, 2, 4.5 MG/KG (STABILIZED WITH 0.25%-0.31 HYDROQUINONE) 1/D FOR 18 MO (STUDY DURATION: 18 MO)) was “inactive; negative”. For the same compound, the carcinogen call (Species: RAT, Strain/Sex: F344/FEMALE, Route: ORAL, Dose: 0, 625 MG/L IN DRINKING WATER 5 D/WK FOR 100 WK (STUDY DURATION: 130 WK)) was “inactive; negative”, the carcinogen call (Species: RAT, Strain/Sex: F344/MALE, Route: INTRAPERITONEAL, Dose: 0, 2 MG/KG 2/WK FOR 9 WK THEN 1.5 MG/KG ONCE IN WK 4 THEN 2/WK FOR 7 WK FOLLOWED BY 1 MG/KG ONCE IN WK 12, TWICE IN WK 1) was “inactive; negative” and the carcinogen call (Species: RAT, Strain/Sex: F344/MALE, Route: ORAL, Dose: 0, 100, 250, 625 MG/L IN DRINKING WATER 5 D/WK FOR UP TO 120 WK (STUDY DURATION: 130 WK), Dose: 0, 100, 250, 625 MG/L IN DRINKING WATER 5 D/WK FOR UP TO 120 WK (STUDY DURATION: 130 WK)) was “inactive; negative”. For the same compound, the carcinogen call (Species: RAT, Strain/Sex: SPRAGUE-DAWLEY/FEMALE, Route: GAVAGE, Dose: 0, 0.05, 0.5, 2.5 MG/KG/D IN WATER FOR 102 WK (STUDY DURATION: 24 MO), Dose: 0, 0.05, 0.5, 2.5 MG/KG/D IN WATER FOR 102 WK (STUDY DURATION: 24 MO)) was “inactive; negative” and the carcinogen call (Species: RAT, Strain/Sex: SPRAGUE-DAWLEY/MALE, Route: GAVAGE, Dose: 0, 0.05, 0.5, 2.5 MG/KG/D IN WATER FOR 102 WK (STUDY DURATION: 24 MO), Dose: 0, 0.05, 0.5, 2.5 MG/KG/D IN WATER FOR 102 WK (STUDY DURATION: 24 MO)) was “inactive; negative”.
Cc1c([N+](=O)[O-])c(C)c([N+](=O)[O-])c(C(C)(C)C)c1[N+](=O)[O-] was tested, and the carcinogen call (Species: MOUSE, Strain/Sex: B6C3F1/FEMALE, Route: ORAL, Dose: 0, 0.075, 0.15% IN DIET FOR 80 WK (STUDY DURATION: 80 WK), Dose: 0, 0.075, 0.15% IN DIET FOR 80 WK (STUDY DURATION: 80 WK), Tumor Site: Type of Lesion: LIVER: ADENOMA) was “active; positive” and the carcinogen call (Species: MOUSE, Strain/Sex: B6C3F1/MALE, Route: ORAL, Dose: 0, 0.075, 0.15% IN DIET FOR 80 WK (STUDY DURATION: 80 WK), Dose: 0, 0.075, 0.15% IN DIET FOR 80 WK (STUDY DURATION: 80 WK), Tumor Site: Type of Lesion: LIVER: ADENOMA, CARCINOMA, HARDERIAN GLAND: ADENOMA) was “active; positive”.
CC/C=C/C=C/C=C/C=C/C=C/OC[C@@H](O)CO was tested, and the carcinogen call (Species: MOUSE, Strain/Sex: ICR/FEMALE, Route: INTRAPERITONEAL, Dose: 0, 2.6 MG/KG IN DMSO ON D 1 AND D 3 THEN 0, 5.2 MG/KG IN DMSO ON D 7, 10, 14 AND (STUDY DURATION: 21 MO), Dose: 0, 2.6 MG/KG IN DMSO ON D 1 AND D 3 THEN 0, 5.2 MG/KG IN DMSO ON D 7, 10, 14 AND (STUDY DURATION: 21 MO)) was “inactive; negative”, the carcinogen call (Species: MOUSE, Strain/Sex: ICR/MALE, Route: INTRAPERITONEAL, Dose: 0, 2.6 MG/KG IN DMSO ON D 1 AND D 3 THEN 0, 5.2 MG/KG IN DMSO ON D 7, 10, 14 AND (STUDY DURATION: 21 MO), Dose: 0, 2.6 MG/KG IN DMSO ON D 1 AND D 3 THEN 0, 5.2 MG/KG IN DMSO ON D 7, 10, 14 AND (STUDY DURATION: 21 MO), Tumor Site: Type of Lesion: LIVER: ADENOMA, CARCINOMA, LUNG: ADENOMA, CARCINOMA, GLANDULAR STOMACH: ADENOCARCINOMA, SUBCUTANEOUS TISSUE: FIBROSARCOM, Tumor Site: Type of Lesion: LIVER: ADENOMA, CARCINOMA, LUNG: ADENOMA, CARCINOMA, GLANDULAR STOMACH: ADENOCARCINOMA, SUBCUTANEOUS TISSUE: FIBROSARCOM) was “active; positive” and the carcinogen call (Species: RAT, Strain/Sex: F344/MALE, Route: INTRARECTAL, Dose: 0, 5, 10 NANOMOLAR IN 0.5 ML T-E BUFFER AND METHANOL SATURATED WITH ARGON 1/WK FOR 85 WK (STUDY DURATION: 28 MO), Dose: 0, 5, 10 NANOMOLAR IN 0.5 ML T-E BUFFER AND METHANOL SATURATED WITH ARGON 1/WK FOR 85 WK (STUDY DURATION: 28 MO)) was “inactive; negative”. The carcinogen call (Species: RAT, Strain/Sex: F344/MALE, Route: INTRARECTAL, Dose: 0, 14 MG/KG IN DMSO: EMULPHOR-SALINE 34WK FOR 9 WK THEN 2/WK FOR 12 WK AND 1/WK FOR 50 WK (STUDY DURATION: 92 WK)) was “inactive; negative”.
For O=[N+]([O-])c1ccc2c(c1)-c1ccc([N+](=O)[O-])c3cccc-2c13, the carcinogen call (Species: RAT, Strain/Sex: F344/DUCRJ/MALE, Route: PULMONARY IMPLANT, Dose: 0, 0.05, 0.1, 0.2 MG AS A SUSPENSION IN EQUAL VOL OF BEESWAX AND TRICAPRYLIN IMPLANTED IN LEFT LUNG (STUDY DURATION: 70, Dose: 0, 0.05, 0.1, 0.2 MG AS A SUSPENSION IN EQUAL VOL OF BEESWAX AND TRICAPRYLIN IMPLANTED IN LEFT LUNG (STUDY DURATION: 70, Tumor Site: Type of Lesion: LUNG: TUMOR) was “active; positive”, the carcinogen call (Species: RAT, Strain/Sex: F344/MALE, Route: LUNG IMPLANT, Dose: 0, 50, 100, 200 UG IN BEESWAX/TRICAPRYLIN INTO LOWER LEFT LUNG ONCE (STUDY DURATION: 100 WK), Dose: 0, 50, 100, 200 UG IN BEESWAX/TRICAPRYLIN INTO LOWER LEFT LUNG ONCE (STUDY DURATION: 100 WK), Tumor Site: Type of Lesion: LUNG: SQUAMOUS CELL CARCINOMA, ADENOSQUAMOUS CARCINOMA, TUMOR) was “active; positive” and the carcinogen call (Species: RAT, Strain/Sex: F344/MALE, Route: PULMONARY IMPLANT, Dose: 0, 50, 100, 200 UG IN 50 µL BEESWAX/TRICAPRYLIN IMPLANTED FOR UP TO 100 WK (STUDY DURATION: 100 WK), Dose: 0, 50, 100, 200 UG IN 50 µL BEESWAX/TRICAPRYLIN IMPLANTED FOR UP TO 100 WK (STUDY DURATION: 100 WK), Tumor Site: Type of Lesion: LUNG: TUMOR) was “active; positive”.
With O=S(=O)(O)c1c(N=Nc2c(O)ccc3ccccc23)ccc2ccccc12 the carcinogen call (Species: MOUSE, Strain/Sex: ICR/FEMALE, Route: DERMAL, Dose: 0, 1 MG IN 0.1 ML DISTILLED WATER 2/WK FOR A MEAN TOTAL DOSE OF 128.1 MG (STUDY DURATION: 18 MO)) was “inactive; negative” and the carcinogen call (Species: MOUSE, Strain/Sex: ICR/MALE, Route: DERMAL, Dose: 0, 1 MG IN 0.1 ML DISTILLED WATER 2/WK FOR A MEAN TOTAL DOSE OF 128.1 MG (STUDY DURATION: 18 MO)) was “inactive; negative”.
For CCCN(CCC)N=O, the carcinogen call (Species: HAMSTER, Route: SUBCUTANEOUS, Tumor Site: Type of Lesion: RESPIRATORY TRACT, LUNG) was “active; positive”, the carcinogen call (Species: RAT, Route: ORAL, Tumor Site: Type of Lesion: LIVER) was “active; positive” and the carcinogen call (Species: RAT, Route: SUBCUTANEOUS, Tumor Site: Type of Lesion: NASAL CAVITY, LIVER) was “active; positive”.
With CN1CSC(=S)N(C)C1 the carcinogen call (Species: Mouse, Strain/Sex: B6C3F1/Female (50/Group), Route: Oral, Dose: 0, 6, 22, 93 mg/kg in diet for 78 wk, study duration 78 wk, Dose: 0, 6, 22, 93 mg/kg in diet for 78 wk, study duration 78 wk) was “inactive; negative”, the carcinogen call (Species: Mouse, Strain/Sex: B6C3F1/Male (50/Group), Route: Oral, Dose: 0, 4, 16, 68 mg/kg in diet for 78 wk, study duration 78 wk, Dose: 0, 4, 16, 68 mg/kg in diet for 78 wk, study duration 78 wk) was “inactive; negative” and the carcinogen call (Species: Rat, Strain/Sex: Wistar/Female (50/Group), Route: Oral, Dose: 0, 0.35, 1.37, 5.66 mg/kg in diet for 2 yr, study duration 2 yr) was “inactive; negative”. The carcinogen call (Species: Rat, Strain/Sex: Wistar/Male (50/Group), Route: Oral, Dose: 0, 0.27, 1.08, 4.43 mg/kg in diet for 2 yr, study duration 2 yr) was “inactive; negative”.
